“Also recorded” adds a separate entry of the source. Read-outs that look alike come from different tables or passages of the source.
Key:
SJ-G2 glioblastoma [1] = system: SJ-G2 glioblastoma; design: method as in PMID 36142383; conditions: MTT assay, 72 h; cited from earlier work
U87 glioblastoma [2] = system: U87 glioblastoma; design: method as in PMID 36142383; conditions: MTT assay, 72 h; cited from earlier work
H460 lung [3] = system: H460 lung; design: method as in PMID 36142383; conditions: MTT assay, 72 h; cited from earlier work
Du145 prostate [4] = system: Du145 prostate; design: method as in PMID 36142383; conditions: MTT assay, 72 h; cited from earlier work
HT29 colon [5] = system: HT29 colon; design: method as in PMID 36142383; conditions: MTT assay, 72 h; cited from earlier work
A2780 ovarian [6] = system: A2780 ovarian; design: method as in PMID 36142383; conditions: MTT assay, 72 h; cited from earlier work
MIA pancreas [7] = system: MIA pancreas; design: method as in PMID 36142383; conditions: MTT assay, 72 h; cited from earlier work
[8] = system: ADDP-resistant ovarian variant; design: method as in PMID 36142383; conditions: MTT assay, 72 h; cited from earlier work
MCF-7 breast [9] = system: MCF-7 breast; design: method as in PMID 36142383; conditions: MTT assay, 72 h; cited from earlier work
BE2-C neuroblastoma [10] = system: BE2-C neuroblastoma; design: method as in PMID 36142383; conditions: MTT assay, 72 h; cited from earlier work
A431 skin [11] = system: A431 skin; design: method as in PMID 36142383; conditions: MTT assay, 72 h; cited from earlier work
[12] = system: non-tumour derived MCF10A breast line; design: method as in PMID 36142383; conditions: MTT assay, 72 h; cited from earlier work
HT29 colon cells [13] = system: HT29 colon cells; design: method as in PMID 36142383; conditions: cited from earlier work
panel of cell lines [14] = system: panel of cell lines; design: method as in PMID 36142383; conditions: average over the cell lines tested, MTT assay, 72 h; cited from earlier work
panel of cell lines [15] = assay: MTT growth inhibition assay, whole panel of cell lines; format: cell-based, human; conditions: for GI50: average over the cell lines tested, MTT assay, 72 h
U87 glioblastoma [16] = assay: MTT growth inhibition assay, U87; format: cell-based, human; conditions: 72 h
A431 skin [17] = assay: MTT growth inhibition assay, A431; format: cell-based, human; conditions: 72 h
SJ-G2 glioblastoma [18] = assay: MTT growth inhibition assay, SJ-G2; format: cell-based, human; conditions: 72 h
Du145 prostate [19] = assay: MTT growth inhibition assay, Du145; format: cell-based, human; conditions: MTT assay, 72 h
[20] = Reduction experiments with AsA by 1H-NMR and 1D-195Pt-NMR; format: physicochemical; conditions: D2O, 37 °C; for T50% (approximate time at which 50% reduction occurs): 10 mM PBS (~7.4 pH), 1H-NMR; for extent of reduction 1 h after the final 1H-NMR experiment (1D-195Pt-NMR): PBS, regions −2800 and 400 ppm
Text: Platinum(IV) complexes are reduced to their platinum(II) precursors by intracellular biological reducing agents such as AsA or GSH in tumour cells. However, the precise mechanism by which reduction occurs is not fully understood. In this paper, reduction reaction experiments were undertaken on the synthesised platinum(IV) complexes, 1–8, with the aid of ^1H-NMR and 1D-^195Pt-NMR spectroscopy. The method used for the reduction reaction experiments was adapted from the literature without modifications. A total of 10 mM PBS (~7.4 pH) was selected as media, and AsA was used as the biological reducing agent to investigate the reduction property of 1–8. Prior to the reduction reaction experiments, a control was prepared where each metal complex was dissolved with PBS in D2O. 1D-^195Pt-NMR was measured within the regions of −2800 and 400 ppm (30 min per region), at 37 °C. This was undertaken to confirm that the PBS would not interfere with the reduction process of the metal complexes. […] The approximate time points for the studied complexes at which an estimated 50% reduction had occurred, in the presence of AsA, as represented by T50%, are summarised in Table 6.
The reduction properties of 1–8 were monitored using ^1H-NMR and 1D-^195Pt-NMR spectroscopy on a 400 MHz Bruker (Melbourne, VIC, Australia) Avance Spectrometer. A sequence of ^1H-NMR experiments was carried out for 1 h at 37 °C, followed by 1D-^195Pt-NMR within the regions of −2800 and 400 ppm. An amount of 10 mM PBS (~7.4 pH) was transferred to a vial and reduced to dryness through rotary evaporation. AsA (~1 mg) was combined with the metal complex (~5 mg) and transferred to the vial containing the dried PBS. A total of 600 µL of D2O was then added to the vial to dissolve the complex, AsA, and the PBS together.

HT29 colon [21] = assay: MTT growth inhibition assay, HT29; format: cell-based, human; conditions: MTT assay, 72 h
BE2-C neuroblastoma [22] = assay: MTT growth inhibition assay, BE2-C; format: cell-based, human; conditions: 72 h
H460 lung [23] = assay: MTT growth inhibition assay, H460; format: cell-based, human; conditions: 72 h
[24] = system: non-tumour derived MCF10A breast line; assay: MTT growth inhibition assay, MCF10A; format: cell-based, human; conditions: 72 h
MIA pancreas [25] = assay: MTT growth inhibition assay, MIA; format: cell-based, human; conditions: 72 h
HT29 colon cells [26] = assay: ROS detection assay (DCFH-DA); format: cell-based, human; conditions: HT29 colon cells, treated at GI50 concentration (TBHP positive control 20 μM)
MCF-7 breast [27] = assay: MTT growth inhibition assay, MCF-7; format: cell-based, human; conditions: MTT assay, 72 h
[28] = system: ADDP-resistant ovarian variant; assay: MTT growth inhibition assay, ADDP; format: cell-based, human; conditions: MTT assay, 72 h
A2780 ovarian [29] = assay: MTT growth inhibition assay, A2780; format: cell-based, human; conditions: 72 h
[30] = Lipophilicity by HPLC (log kw); format: physicochemical; conditions: for log kw: chromatographic lipophilicity index, extrapolated to 100% d.i.H2O; for log kw (y-intercept of log k versus [CH3CN] % plot, Figure S80): linear fit
Text: For lipophilicity measurements, HPLC was utilised instead of the traditional shake-flask method, as described previously. Recent studies have also reported the efficiency of HPLC in measuring the lipophilicity of compounds [79, 80]. Each complex was eluted under several isocratic ratios. A standard curve was generated to calculate the log value of the capacity factor (log k) according to Equation (1). Following Equation (2), the percentage of organic solvent (CH3CN) in the mobile phase from each isocratic run was plotted against log kw (Figure S80). Log kw is the chromatographic lipophilicity index or measure of lipophilicity of the complex, so a higher value corresponds to greater lipophilicity. Because the selected axial ligands in this study contain F, Cl, Br, and I, it was only appropriate to determine the influence of the halogens on the overall lipophilicity of the platinum(IV) complexes. […] Conversely, the least lipophilic complex was the phen derivative containing 4-FPA, 3, with a log kw of 0.25. Furthermore, for the phen derivatives, the order of increasing lipophilicity was 3 > 1 > 5 > 7, which corresponds to the order of increasing size of the halogens, F > Cl > Br > I. This pattern was also observed with the 5,6-Me2phen derivatives (4 > 2 > 6 > 8), thereby confirming that the halogens increased the order of lipophilicity accordingly based on their size.
For lipophilicity measurements, analytical HPLC was utilised. Elution profiles were acquired on an Agilent (Melbourne, VIC, Australia) Technologies 1260 Infinity instrument equipped with a Phenomenex Onyx^TM Monolithic C18-reverse phase column (100 × 4.6 mm, 5 µm pore size) (Sydney, NSW, Australia). The mobile phase consisted of solvents, A (0.06% TFA in d.i.H2O) and B (0.06% TFA in CH3CN/d.i.H2O (90:10)). Potassium iodide was used as an external dead volume marker to determine the dead time of the column. Retention times (TR) were measured at varying isocratic ratios ranging from 30 to 36% of solvent B at 1 mL·min^−1 mL. An injection volume of 10 µL was utilised. Capacity factors were determined according to Equation (1):(1) k=(TR−T0)/T0 where k is the capacity factor, TR is the retention time of the analyte, and T0 represents the dead time. A minimum of four different mobile compositions were used for each complex to calculate k. A linear plot was generated of log k against the concentration of CH3CN in the mobile phase to determine the value of log kw expressed by Equation (2):(2) logk=Sφ+logkw where S is the slope, φ is the concentration of the CH3CN in the mobile phase, and log kw represents the capacity factor of the complex in 100% d.i.H2O. Extrapolation of this linear plot to the y-intercept indicates the log kw value.

SMILES	GI50 (SJ-G2 glioblastoma [1]) [nM]	GI50 (U87 glioblastoma [2]) [nM]	GI50 (H460 lung [3]) [nM]	GI50 (Du145 prostate [4]) [nM]	GI50 (HT29 colon [5]) [nM]	GI50 (A2780 ovarian [6]) [nM]	GI50 (MIA pancreas [7]) [nM]	GI50 [8] [nM]	GI50 (MCF-7 breast [9]) [nM]	GI50 (BE2-C neuroblastoma [10]) [nM]	GI50 (A431 skin [11]) [nM]	GI50 [12] [nM]	GI50 (U87 glioblastoma [16]) [nM]	GI50 (A431 skin [17]) [nM]	GI50 (SJ-G2 glioblastoma [18]) [nM]	GI50 (Du145 prostate [19]) [nM]	T50% (approximate time at which 50% reduction occurs) [20] [min]	extent of reduction 1 h after the final 1H-NMR experiment (1D-195Pt-NMR) [20]	GI50 (HT29 colon [21]) [nM]	GI50 (BE2-C neuroblastoma [22]) [nM]	further results
O=C1[O][Pt]2([NH][C@@H]3CCCC[C@H]3[NH]2)[O]C1=O (relative stereo) [Oxaliplatin, trans-L-(1R,2R-diaminocyclohexane) oxalatoplatinum(II)]	3000 ± 1200	1800 ± 200	1600 ± 100	2900 ± 400	900 ± 200	160 ± 100	900 ± 200	800 ± 100	500 ± 100	900 ± 200	4100 ± 500	–	–	–	–	–	–	–	–	–	–
Cc1c(C)c2c3c4c1=CC=C[N]4[Pt+2]([OH])([OH])[N]3C=CC=2.N[C@H]1CCCC[C@@H]1N [56MESS(IV)(OH)2]	210 ± 45	190 ± 23	190 ± 150	15 ± 2.6	36 ± 7	59 ± 7	43 ± 2.5	170 ± 120	480 ± 140	240 ± 22	120 ± 22	61 ± 7	–	–	–	–	–	–	–	–	ROS production 24 h (HT29 colon cells [13]; 24 h): 259 ± 3 RFU; ROS production 48 h (HT29 colon cells [13]; 48 h): 356 ± 11 RFU; ROS production 72 h (HT29 colon cells [13]; 72 h): 438 ± 7 RFU; GI50 (panel of cell lines [14]): 151 ± 50 nM; fold difference in average GI50 versus corresponding platinum(II) precursor (panel of cell lines [15]; platinum(IV) precursor less cytotoxic than platinum(II) precursor, all cell lines): 4 fold
N.N.O=C([O-])C1(C(=O)[O-])CCC1.[Pt+2] [Carboplatin, cis-diammine(1,1-cyclobutanedicarboxylato) platinum(II)]	5700 ± 200	> 50000	14000	15000	> 50000	9200 ± 2900	> 50000	> 50000	> 50000	19000	24000	> 50000	–	–	–	–	–	–	–	–	–
N[C@H]1CCCC[C@@H]1N.O=C(Cc1ccc(I)cc1)[O][Pt+2]1([OH])[N]2C=CC=c3ccc4c(c32)[N]1C=CC=4 [Complex 7, [Pt^IV(phen)(SS-DACH)(4-IPA)(OH)]^2+]	–	–	–	–	–	–	–	–	–	–	–	–	1010 ± 95	500 ± 180	590 ± 23	110 ± 25	30	partial reduction; also recorded: traces of platinum(IV) species were still observed	220 ± 33	680 ± 38	GI50 (H460 lung [23]): 380 ± 59 nM; GI50 [24]: 280 ± 30 nM; GI50 (MIA pancreas [25]): 360 ± 40 nM; ROS production 24 h (HT29 colon cells [26]): 211 ± 9.1 RFU; ROS production 48 h (HT29 colon cells [26]): 281 ± 12 RFU; ROS production 72 h (HT29 colon cells [26]): 322 ± 17 RFU; GI50 (MCF-7 breast [27]): 490 ± 134 nM; GI50 [28]: 280 ± 24 nM; GI50 (A2780 ovarian [29]): 280 ± 42 nM; GI50 (panel of cell lines [15]): 432 ± 60 nM; log kw [30]: 0.90; log kw (y-intercept of log k versus [CH3CN] % plot, Figure S80) [30]: 0.895
Cc1c(C)c2c3c4c1=CC=C[N]4[Pt+2]([OH])([O]C(=O)Cc1ccc(I)cc1)[N]3C=CC=2.N[C@H]1CCCC[C@@H]1N [Complex 8, [Pt^IV(5,6-Me2phen)(SS-DACH)(4-IPA)(OH)]^2+]	–	–	–	–	–	–	–	–	–	–	–	–	900 ± 58	430 ± 160	520 ± 29	100 ± 21	5 to 10	complete reduction	178 ± 31	650 ± 81	GI50 (H460 lung [23]): 390 ± 33 nM; GI50 [24]: 260 ± 22 nM; GI50 (MIA pancreas [25]): 300 ± 55 nM; ROS production 24 h (HT29 colon cells [26]): 345 ± 19.3 RFU; ROS production 48 h (HT29 colon cells [26]): 406 ± 14 RFU; ROS production 72 h (HT29 colon cells [26]): 466 ± 13 RFU; GI50 (MCF-7 breast [27]): 420 ± 62 nM; GI50 [28]: 230 ± 15 nM; GI50 (A2780 ovarian [29]): 260 ± 45 nM; GI50 (panel of cell lines [15]): 387 ± 50 nM; log kw [30]: 1.19; log kw (y-intercept of log k versus [CH3CN] % plot, Figure S80) [30]: 1.1909

— PMC9611758, “Bioactive Platinum(IV) Complexes Incorporating Halogenated Phenylacetates” (Molecules, 2022)
